Measurements published in PMC7403315, “Cyclic peptide FXII inhibitor provides safe anticoagulation in a thrombosis model and in artificial lungs” (Nature Communications, 2020).
Values joined by “and” are separate entries in the source; they are usually repeats but may differ in a detail not shown here. Equal values may be shown once. Values belong to the compound of their own block, whether it stands above or below them. Starred links: 1 amine or outer side, 2 acyl side, 3 side chain; linkers in the order of their positions; H or OH if unused. Positions of bridges follow the written chain, without caps; N, C: chain ends. Non-standard residues stand in square brackets, D forms with d. Residues, ends and D or L forms follow the SMILES beside them. TATA = O=C(CC[*:1])N1CN(C(=O)CC[*:2])CN(C(=O)CC[*:3])C1; Phe(4-F) = N[C@@H](Cc1ccc(F)cc1)C(=O)O; β3hR = N=C(N)NCCC[C@H](N)CC(=O)O

Assays:
[1] = target: T1, human β-FXIIa (Homo sapiens, UniProt P00748); assay: FXIIa protease inhibition assay with fluorogenic substrate Boc-Gln-Gly-Arg-AMC; assay type: biochemical; conditions: for Ki: purified peptide without coumarin label, read-out: Ki human FXIIa
T1 construct: human β-FXIIa (Molecular Innovations cat #); purchased Molecular Innovations HFXIIAB; host or cells: human blood
Method: (§1) In order to test the inhibitory activity of peptides without prior purification, we developed the following method. […] After solid-phase peptide synthesis, cleavage, and ether precipitation, the peptides were chemically cyclized and their Ki values were determined in a FXIIa activity assay using a fluorogenic substrate.
(§2) Protease inhibition assays
(§3) The inhibitory activity of peptides was determined by measuring the residual protease activity with a fluorogenic substrate. The assay was performed in buffer containing 10 mM Tris-Cl, pH […]
(§4) 1% (v/v) DMSO in a volume of 150 µl. FXIIa activity was measured with the fluorogenic substrate Boc-Gln-Gly-Arg-AMC (Bachem) at a final concentration of 50 µM. Mouse α-FXIIa (Molecular Innovations cat # MFXIIA) and human β-FXIIa (Molecular Innovations cat # HFXIIAB) were used at final concentrations of 0.4 nM. The reaction was pipetted as follows: 50 µl of bicyclic peptide in assay buffer were added to 50 µl of FXIIa in assay buffer and incubated for 10 minutes at 25°C before 50 µl of 150 µM fluorogenic substrate in assay buffer were added to measure the residual protease activity with an Infinite M200Pro fluorescence plate reader (excitation at 368 nm, emission at 467 nm; Tecan) for a period of 30 minutes with a read every minute at 25°C. The Tecan software i-control (version 1.1) was used for data analysis. Stock solutions of 1 mM bicyclic peptide were prepared by either dissolving the unpurified cyclization reaction with water or by dissolving purified and lyophilized peptide in water. The bicyclic peptides were serially diluted two-fold using assay buffer. Sigmoidal curves were fitted to the data using the following dose response equation (1), wherein x = peptide concentration, y = % protease activity, and p = Hill slope. IC50 values were derived from the fitted curve.
(§5) The inhibition constants (Ki) were calculated according to the equation of Cheng and Prusoff, Ki = IC50/(1+([S]0/Km), wherein IC50 is the functional strength of the inhibitor, [S]0 is the total substrate concentration, and Km is the Michaelis-Menten constant. […]
(§6) the substrate Boc-Gln-Gly-Arg-AMC. […]

[2] = target: T2, Mouse α-FXIIa (Mus musculus, UniProt Q80YC5); assay: as above; assay type: biochemical; conditions: purified peptide without coumarin label; read-out: Ki mouse FXIIa
T2 construct: Mouse α-FXIIa; purchased Molecular Innovations MFXIIA
T2 sequence (Q80YC5 355-597 limits assumed): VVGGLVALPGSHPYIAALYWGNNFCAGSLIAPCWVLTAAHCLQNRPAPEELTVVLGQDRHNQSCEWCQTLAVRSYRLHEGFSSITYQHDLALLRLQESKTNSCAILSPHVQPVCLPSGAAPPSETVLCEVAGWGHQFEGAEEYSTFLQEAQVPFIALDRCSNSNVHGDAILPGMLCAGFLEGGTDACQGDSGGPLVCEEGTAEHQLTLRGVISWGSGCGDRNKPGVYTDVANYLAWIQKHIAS
T2 sequence (Q80YC5 20-354 limits assumed): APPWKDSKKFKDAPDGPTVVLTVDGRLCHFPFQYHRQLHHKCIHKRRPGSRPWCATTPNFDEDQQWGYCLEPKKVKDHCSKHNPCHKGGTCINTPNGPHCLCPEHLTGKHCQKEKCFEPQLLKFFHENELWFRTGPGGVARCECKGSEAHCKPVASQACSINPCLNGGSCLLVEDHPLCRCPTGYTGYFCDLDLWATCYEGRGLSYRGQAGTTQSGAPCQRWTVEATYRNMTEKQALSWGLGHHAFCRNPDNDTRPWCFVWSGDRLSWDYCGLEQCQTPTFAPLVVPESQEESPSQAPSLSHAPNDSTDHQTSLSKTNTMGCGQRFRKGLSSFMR
Method: as §1, §2, §3, §4, §5, §6

T1 sequence (P00748 373-615 limits assumed, other chains not shown): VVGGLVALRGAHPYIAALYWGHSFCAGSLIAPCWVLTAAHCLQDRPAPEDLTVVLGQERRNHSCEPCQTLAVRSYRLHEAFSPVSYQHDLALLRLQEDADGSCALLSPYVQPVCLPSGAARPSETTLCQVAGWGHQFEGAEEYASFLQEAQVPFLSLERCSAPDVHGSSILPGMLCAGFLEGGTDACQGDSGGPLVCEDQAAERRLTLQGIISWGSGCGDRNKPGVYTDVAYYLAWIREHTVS

Residual activity of human FXIIa ([1]; inhibitor 0.390625 nM, 0.000390625 µM): 96.2983% | remaining activity at 0.000390625 µM ([1]; inhibitor 0.390625 nM, read-out: Residual activity of human FXIIa): 93.8% | Residual activity of human FXIIa ([1]; inhibitor 0.78125 nM, 0.00078125 µM): 91.5155% | remaining activity at 0.00078125 µM ([1]; inhibitor 0.78125 nM, read-out: Residual activity of human FXIIa): 90.5% | Residual activity of human FXIIa ([1]; inhibitor 1.5625 nM, 0.0015625 µM): 83.5319% | remaining activity at 0.0015625 µM ([1]; inhibitor 1.5625 nM, read-out: Residual activity of human FXIIa): 84.1% | Residual activity of human FXIIa ([1]; inhibitor 3.125 nM, 0.003125 µM): 70.2169% | remaining activity at 0.003125 µM ([1]; inhibitor 3.125 nM, read-out: Residual activity of human FXIIa): 72.3% | Residual activity of human FXIIa ([1]; inhibitor 6.25 nM, 0.00625 µM): 54.9417% | remaining activity at 0.00625 µM ([1]; inhibitor 6.25 nM, read-out: Residual activity of human FXIIa): 56.8% | Residual activity of human FXIIa ([1]; inhibitor 12.5 nM, 0.0125 µM): 37.7877% | remaining activity at 0.0125 µM ([1]; inhibitor 12.5 nM, read-out: Residual activity of human FXIIa): 38.2% | Residual activity of human FXIIa ([1]; inhibitor 25 nM, […]): 23.2045% | remaining activity at […] ([1]; inhibitor 25 nM, read-out: Residual activity of human FXIIa): 25% | Residual activity of human FXIIa ([1]; inhibitor 50 nM, 0.05 µM): 12.5321% | remaining activity at 0.05 µM ([1]; inhibitor 50 nM, read-out: Residual activity of human FXIIa): 14.1% | Residual activity of human FXIIa ([1]; inhibitor 100 nM, 0.1 µM): 6.25% | remaining activity at 0.1 µM ([1]; inhibitor 100 nM, read-out: Residual activity of human FXIIa): 6.97% | Residual activity of human FXIIa ([1]; inhibitor 200 nM, 0.2 µM): 1.167% and 2.638% | Residual activity of human FXIIa ([1]; inhibitor 400 nM, 0.4 µM): 1.099% | remaining activity at 0.4 µM ([1]; inhibitor 400 nM, read-out: Residual activity of human FXIIa): 1.94% | Ki [1]: 6.5 nM | Ki [2]: 36 nM
SMILES: CC(C)C[C@@H]1NC(=O)[C@H](CCC(N)=O)NC(=O)[C@H](Cc2c[nH]cn2)NC(=O)[C@@H]2CSCCC(=O)N3CN(CN(C3)C(=O)CCSC[C@H](NC(=O)[C@@H](N)CCCNC(=N)N)C(=O)N[C@@H](Cc3ccccc3)C(=O)N[C@@H](CCCNC(=N)N)C(=O)N[C@@H](CC(C)C)C(=O)N3CCC[C@H]3C(=O)N2)C(=O)CCSC[C@@H](C(=O)N[C@@H](CCCNC(=N)N)C(N)=O)NC(=O)[C@H](CCCNC(=N)N)NC1=O [FXII851] (HELM PEPTIDE1{R.C.F.R.L.P.C.H.Q.L.R.C.R.[am]}|CHEM1{[O=C(CC[*:1])N1CN(C(=O)CC[*:2])CN(C(=O)CC[*:3])C1]}$PEPTIDE1,CHEM1,2:R3-1:R1|PEPTIDE1,CHEM1,7:R3-1:R2|PEPTIDE1,CHEM1,12:R3-1:R3$$$V2.0)

Ki [1]: 0.34 ± 0.03 nM | Ki [2]: 0.5 ± 0.15 nM
SMILES: CC(C)C[C@@H]1NC(=O)[C@H](CCC(N)=O)NC(=O)[C@H](Cc2c[nH]cn2)NC(=O)[C@@H]2CSCCC(=O)N3CN(CN(C3)C(=O)CCSC[C@H](NC(=O)[C@@H](CO)NC(=O)[C@H](N)CCCNC(=N)N)C(=O)N[C@@H](Cc3ccc(F)cc3)C(=O)N[C@@H](CCCNC(=N)N)C(=O)N[C@@H](CC(C)C)C(=O)N3CCC[C@H]3C(=O)N2)C(=O)CCSC[C@@H](C(=O)N[C@@H](CCCNC(=N)N)C(N)=O)NC(=O)C[C@H](CCCNC(=N)N)NC1=O [FXII900 (with C-term Arg)] (H-[dR][dS]C[Phe(4-F)]RLPCHQL[β3hR]CR-NH2; linker 3-8-13 via TATA)

Ki [1]: 0.7 ± 0.06 nM | Ki [2]: 1.9 ± 0.5 nM
SMILES: CC(C)C[C@@H]1NC(=O)[C@H](CCC(N)=O)NC(=O)[C@H](Cc2c[nH]cn2)NC(=O)[C@@H]2CSCCC(=O)N3CN(CN(C3)C(=O)CCSC[C@H](NC(=O)[C@@H](CO)NC(=O)[C@H](N)CCCNC(=N)N)C(=O)N[C@@H](Cc3ccccc3)C(=O)N[C@@H](CCCNC(=N)N)C(=O)N[C@@H](CC(C)C)C(=O)N3CCC[C@H]3C(=O)N2)C(=O)CCSC[C@@H](C(=O)N[C@@H](CCCNC(=N)N)C(N)=O)NC(=O)C[C@H](CCCNC(=N)N)NC1=O [Phe3Phe4F reverted] (HELM PEPTIDE1{[dR].[dS].C.F.R.L.P.C.H.Q.L.[N=C(N)NCCC[C@@H](CC(=O)[*:2])N[*:1]].C.R.[am]}|CHEM1{[O=C(CC[*:1])N1CN(C(=O)CC[*:2])CN(C(=O)CC[*:3])C1]}$PEPTIDE1,CHEM1,3:R3-1:R1|PEPTIDE1,CHEM1,8:R3-1:R2|PEPTIDE1,CHEM1,13:R3-1:R3$$$V2.0)
